{
  "source": "patent US20210315927A1",
  "about": "“TREATING ARDS USING A POLY-OXYGENATED ALUMINUM HYDROXIDE” (HEMOTEK LLC, priority 2020, published 2021)",
  "tested_on": "mechanically-induced ARDS in rodents",
  "parameters": "species or system male Sprague Dawley rats",
  "conditions": "rat, in vivo",
  "excerpt": "The following protocol and experimental procedures were approved by the Thomas D Morris, Inc. Institutional Animal Care and Use Committee (Protocol #20-007) and are consistent with the National Institutes of Health guidelines for the humane treatment of laboratory animals. Study subjects were male Sprague Dawley rats (N=21; 250-300 g; 8-10 weeks old; Charles River Laboratories, Inc., Wilmington, Mass. housed in pairs with a 12/12 day night cycle and provided ad libitum access to feed and water.\nAnimals were inducted with 1-5% isoflurane in air for initial preoperative preparation and cannulations. The anesthetic plane was maintained with a continuous intravenous infusion (0.1 mg/kg/min) into a femoral vein using a pre-filled syringe of alfaxalone acetate (Alfaxan, Schering-Plough Animal Health, Welwyn Garden City, UK) that was connected to a syringe pump (Genie Touch™, Kent Scientific, Torrington, Conn.). A second femoral vein was cannulated to be used for infusion of IV treatments. A femoral artery cannula was connected to a pressure transducer for continuous monitoring of arterial blood pressures (BIOPAC MP-150, BIOPAC Systems, Goleta, Calif.). The same femoral artery cannula was also used to collect blood samples for analysis of blood gases and chemistry (ABL90 Flex, Radiometer, Denmark). […]",
  "data": [
    {"substance": "poly-oxygenated aluminum hydroxide [Ox66™]", "values": [
      {"measurement": "supraphysiologic levels of PAO2 or sO2", "value": "did not show supraphysiologic levels of PAO2 or sO2"}
    ]}
  ]
}
